Assay results reported in PubChem BioAssay (NCI).
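Five compound concentrations were applied to cells in 96-well plates for 48 hours; endpoints were derived by simple linear interpolation of the resulting dose-response curve. TGI denotes the concentration required for complete inhibition of growth.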

Experiments:
Assay in all cases: inhibition of tumour cell growth, NCI panel, 48 h
NCI/ADR-RES ovarian = system: NCI/ADR-RES ovarian
IGROV1 ovarian = system: IGROV1 ovarian
HCT-15 colon = system: HCT-15 colon
HOP-62 NSCLC = system: HOP-62 NSCLC
SR leukemia = system: SR leukemia
MDA-MB-231 breast = system: MDA-MB-231 breast
CAKI-1 renal = system: CAKI-1 renal
HCC-2998 colon = system: HCC-2998 colon
K-562 leukemia = system: K-562 leukemia
SF-295 CNS = system: SF-295 CNS
DU-145 prostate = system: DU-145 prostate
786-0 renal = system: 786-0 renal
SK-MEL-28 melanoma = system: SK-MEL-28 melanoma
MCF7 breast = system: MCF7 breast
UO-31 renal = system: UO-31 renal
MALME-3M melanoma = system: MALME-3M melanoma
OVCAR-5 ovarian = system: OVCAR-5 ovarian
SF-539 CNS = system: SF-539 CNS
SW-620 colon = system: SW-620 colon
TK-10 renal = system: TK-10 renal
UACC-257 melanoma = system: UACC-257 melanoma
SK-MEL-2 melanoma = system: SK-MEL-2 melanoma
HCT-116 colon = system: HCT-116 colon
SF-268 CNS = system: SF-268 CNS
EKVX NSCLC = system: EKVX NSCLC
OVCAR-8 ovarian = system: OVCAR-8 ovarian
RPMI-8226 leukemia = system: RPMI-8226 leukemia
A549 NSCLC = system: A549 NSCLC
SN12C renal = system: SN12C renal
NCI-H522 lung = system: NCI-H522 lung
MDA-MB-435 = system: MDA-MB-435
SK-MEL-5 melanoma = system: SK-MEL-5 melanoma
HOP-92 NSCLC = system: HOP-92 NSCLC
SNB-19 CNS = system: SNB-19 CNS
RXF 393 renal = system: RXF 393 renal
HL-60(TB) leukemia = system: HL-60(TB) leukemia
ACHN renal = system: ACHN renal
CCRF-CEM leukemia = system: CCRF-CEM leukemia
HS 578T breast = system: HS 578T breast
OVCAR-3 ovarian = system: OVCAR-3 ovarian
NCI-H23 lung = system: NCI-H23 lung
BT-549 breast = system: BT-549 breast
LOX IMVI melanoma = system: LOX IMVI melanoma
COLO 205 colon = system: COLO 205 colon
NCI-H460 lung = system: NCI-H460 lung
SK-OV-3 ovarian = system: SK-OV-3 ovarian
PC-3 prostate = system: PC-3 prostate
MOLT-4 leukemia = system: MOLT-4 leukemia
OVCAR-4 ovarian = system: OVCAR-4 ovarian
MDA-N = system: MDA-N
NCI-H226 lung = system: NCI-H226 lung
M14 melanoma = system: M14 melanoma
SNB-75 CNS = system: SNB-75 CNS
HT29 colon = system: HT29 colon
KM12 colon = system: KM12 colon
U251 CNS = system: U251 CNS
A498 renal = system: A498 renal
UACC-62 melanoma = system: UACC-62 melanoma

O=C(O)CNC(=O)C(CSC(=O)OCC1c2ccccc2-c2ccccc21)NC(=O)CCC(NC(=O)OCC1c2ccccc2-c2ccccc21)C(=O)O (stereo not given)
TGI (NCI/ADR-RES ovarian): 33.7 µM
TGI (IGROV1 ovarian): 26.8 µM
TGI (HCT-15 colon): 64.8 µM
TGI (HOP-62 NSCLC): 28.9 µM
TGI (SR leukemia): 15.4 µM
TGI (MDA-MB-231 breast): 31.9 µM
TGI (CAKI-1 renal): 15.7 µM
TGI (HCC-2998 colon): > 100 µM
TGI (K-562 leukemia): 39.2 µM
TGI (SF-295 CNS): 30.5 µM
TGI (DU-145 prostate): 28.6 µM
TGI (786-0 renal): 9.13 µM
TGI (SK-MEL-28 melanoma): > 100 µM
TGI (MCF7 breast): > 100 µM
TGI (UO-31 renal): 33 µM
TGI (MALME-3M melanoma): 59.4 µM
TGI (OVCAR-5 ovarian): > 100 µM
TGI (SF-539 CNS): 30.6 µM
TGI (SW-620 colon): 35.1 µM
TGI (TK-10 renal): 56 µM
TGI (UACC-257 melanoma): > 100 µM
TGI (SK-MEL-2 melanoma): > 100 µM
TGI (HCT-116 colon): 32.6 µM
TGI (SF-268 CNS): 33.1 µM
TGI (EKVX NSCLC): 32.2 µM
TGI (OVCAR-8 ovarian): 32.4 µM
TGI (RPMI-8226 leukemia): 46.4 µM
TGI (A549 NSCLC): 28 µM
TGI (SN12C renal): 30.7 µM
TGI (NCI-H522 lung): 3.52 µM
TGI (MDA-MB-435): 34.1 µM
TGI (SK-MEL-5 melanoma): > 100 µM
TGI (HOP-92 NSCLC): 36.3 µM
TGI (SNB-19 CNS): > 100 µM
TGI (RXF 393 renal): 34.7 µM
TGI (HL-60(TB) leukemia): > 100 µM
TGI (ACHN renal): 32.8 µM
TGI (CCRF-CEM leukemia): 41.2 µM
TGI (HS 578T breast): > 100 µM
TGI (OVCAR-3 ovarian): > 100 µM
TGI (NCI-H23 lung): > 100 µM
TGI (BT-549 breast): > 100 µM
TGI (LOX IMVI melanoma): 0.577 µM
TGI (COLO 205 colon): 31.1 µM
TGI (NCI-H460 lung): 34.2 µM
TGI (SK-OV-3 ovarian): > 100 µM
TGI (PC-3 prostate): 28.9 µM
TGI (MOLT-4 leukemia): 45.4 µM
TGI (OVCAR-4 ovarian): 29.5 µM
TGI (MDA-N): 82.3 µM
TGI (NCI-H226 lung): > 100 µM
TGI (M14 melanoma): > 100 µM

OCCN1c2ccccc2Sc2ccccc21
TGI (NCI/ADR-RES ovarian): > 10 µM
TGI (HCT-15 colon): > 10 µM
TGI (SNB-75 CNS): > 10 µM
TGI (HOP-62 NSCLC): > 10 µM
TGI (SR leukemia): > 10 µM
TGI (MDA-MB-231 breast): > 10 µM
TGI (CAKI-1 renal): > 10 µM
TGI (HCC-2998 colon): > 10 µM
TGI (K-562 leukemia): > 10 µM
TGI (SF-295 CNS): > 10 µM
TGI (DU-145 prostate): > 10 µM
TGI (786-0 renal): > 10 µM
TGI (SK-MEL-28 melanoma): > 10 µM
TGI (MCF7 breast): > 10 µM
TGI (HT29 colon): > 10 µM
TGI (MALME-3M melanoma): > 10 µM
TGI (OVCAR-5 ovarian): > 10 µM
TGI (SF-539 CNS): > 10 µM
TGI (SW-620 colon): > 10 µM
TGI (TK-10 renal): > 10 µM
TGI (UACC-257 melanoma): > 10 µM
TGI (HCT-116 colon): > 10 µM
TGI (SF-268 CNS): > 10 µM
TGI (OVCAR-8 ovarian): > 10 µM
TGI (RPMI-8226 leukemia): > 10 µM
TGI (KM12 colon): > 10 µM
TGI (A549 NSCLC): > 10 µM
TGI (SN12C renal): > 10 µM
TGI (NCI-H522 lung): > 10 µM
TGI (MDA-MB-435): > 10 µM
TGI (SK-MEL-5 melanoma): > 10 µM
TGI (HOP-92 NSCLC): > 10 µM
TGI (SNB-19 CNS): > 10 µM
TGI (HL-60(TB) leukemia): > 10 µM
TGI (ACHN renal): > 10 µM
TGI (HS 578T breast): > 10 µM
TGI (OVCAR-3 ovarian): > 10 µM
TGI (NCI-H23 lung): > 10 µM
TGI (BT-549 breast): > 10 µM
TGI (LOX IMVI melanoma): > 10 µM
TGI (COLO 205 colon): > 10 µM
TGI (SK-OV-3 ovarian): > 10 µM
TGI (PC-3 prostate): > 10 µM
TGI (U251 CNS): > 10 µM
TGI (MOLT-4 leukemia): > 10 µM
TGI (OVCAR-4 ovarian): > 10 µM
TGI (MDA-N): > 10 µM
TGI (M14 melanoma): > 10 µM

CC(C)OC(=O)C1=C2c3ncccc3C(=O)N2[C@@H](Cl)[C@@H](Cl)[C@@H]1Cl
TGI (NCI/ADR-RES ovarian): > 100 µM
TGI (IGROV1 ovarian): > 100 µM
TGI (HCT-15 colon): > 100 µM
TGI (HOP-62 NSCLC): > 100 µM
TGI (SR leukemia): > 100 µM
TGI (MDA-MB-231 breast): > 100 µM
TGI (CAKI-1 renal): > 100 µM
TGI (HCC-2998 colon): > 100 µM
TGI (K-562 leukemia): > 100 µM
TGI (SF-295 CNS): > 100 µM
TGI (DU-145 prostate): > 100 µM
TGI (786-0 renal): > 100 µM
TGI (SK-MEL-28 melanoma): > 100 µM
TGI (MCF7 breast): > 100 µM
TGI (HT29 colon): > 100 µM
TGI (UO-31 renal): > 100 µM
TGI (MALME-3M melanoma): > 100 µM
TGI (OVCAR-5 ovarian): > 100 µM
TGI (SF-539 CNS): > 100 µM
TGI (SW-620 colon): > 100 µM
TGI (TK-10 renal): > 100 µM
TGI (UACC-257 melanoma): > 100 µM
TGI (SK-MEL-2 melanoma): > 100 µM
TGI (HCT-116 colon): > 100 µM
TGI (SF-268 CNS): > 100 µM
TGI (EKVX NSCLC): > 100 µM
TGI (OVCAR-8 ovarian): > 100 µM
TGI (RPMI-8226 leukemia): > 100 µM
TGI (KM12 colon): > 100 µM
TGI (A549 NSCLC): > 100 µM
TGI (SN12C renal): 90.4 µM
TGI (NCI-H522 lung): > 100 µM
TGI (MDA-MB-435): > 100 µM
TGI (SK-MEL-5 melanoma): > 100 µM
TGI (HOP-92 NSCLC): > 100 µM
TGI (SNB-19 CNS): > 100 µM
TGI (A498 renal): > 100 µM
TGI (RXF 393 renal): > 100 µM
TGI (HL-60(TB) leukemia): > 100 µM
TGI (ACHN renal): > 100 µM
TGI (UACC-62 melanoma): > 100 µM
TGI (HS 578T breast): > 100 µM
TGI (OVCAR-3 ovarian): > 100 µM
TGI (NCI-H23 lung): > 100 µM
TGI (BT-549 breast): > 100 µM
TGI (LOX IMVI melanoma): > 100 µM
TGI (COLO 205 colon): > 100 µM
TGI (NCI-H460 lung): > 100 µM
TGI (PC-3 prostate): > 100 µM
TGI (U251 CNS): > 100 µM
TGI (MOLT-4 leukemia): 95.9 µM
TGI (OVCAR-4 ovarian): > 100 µM
TGI (MDA-N): > 100 µM
TGI (NCI-H226 lung): > 100 µM
TGI (M14 melanoma): > 100 µM
